The source of these data is article PMC9386795 (ACS Omega, 2022).

Converted amounts (≈) assume the structure as drawn. “Also recorded” adds a separate entry of the source.

The test system of assay [1] is wild-type PA (WTPA), P. aeruginosa ATCC 9027. Put plainly: Broth microdilution MIC assay against WTPA. Conditions: for MIC: Pseudomonas aeruginosa, ATCC9027, read-out: WTPA MIC.
Assay [2] concerns methicillin susceptible SA (MSSA), S. aureus ATCC 29213. Put plainly: Broth microdilution MIC assay against MSSA. Conditions: for MIC: Staphylococcus aureus, ATCC29213|MSSA, read-out: MSSA MIC.
Assay [3] has as its system PA. As to conditions: cited from earlier work.
Another assay addresses PA ATP synthase (Pseudomonas aeruginosa, UniProt Q9HT15). Put plainly: ATP synthesis assay with PA inverted membrane vesicles. The class given is biochemical. Conditions: for extent of inhibition of ATP synthesis activity at highest concentration: 128 μg/mL compound; for inhibition of PA ATP synthase (in words): PA inverted membrane vesicles.
Assay [4] concerns PA. Put plainly: Adjuvant assay with pentamidine, PA growth in liquid culture. The class given is cell-based, Pseudomonas aeruginosa. Conditions: 50 and 100 μM pentamidine, compared to compound alone.
Assay [5] concerns electron transport chain in PA vesicles. Description: Electron transport chain activity. The class given is biochemical, Pseudomonas aeruginosa. Conditions: 64 μg/mL compound, NADH.
Setting [6] is: n = 3, >85% reduction in growth at OD 590 nm.

For `COc1nc2ccccc2cc1/C=N/NC(N)=S` [Compound 12, (E)-2-((2-Methoxyquinolin-3-yl)methylene)hydrazine-1-carbothioamide], the MIC in assay [1] and in assay [2] was above 128 mg/L each time. Moreover, the “activity against PA (in words)” value in the assay with PA [3] (compared with 11) is reported as “weaker activity”.

With `COC(=O)[C@@H](NCc1cc2ccccc2nc1OCc1ccccc1)C(C)C` [Compound 15, Methyl ((2-(Benzyloxy)quinolin-3-yl)methyl)-L-valinate], on PA ATP synthase, the “extent of inhibition of ATP synthesis activity at highest concentration” value (from here on “extent of inhibition … at highest concentration”) is “not complete” and the “inhibition of PA ATP synthase (in words)” value is recorded as “dose-dependent inhibition; also recorded: active”. For the same compound, the MIC in assay [1] is above 256 mg/L. Moreover, the MIC in assay [2] was above 128 mg/L. The “reduction of PA growth when co-dosed with pentamidine (in words)” value (from here on “reduction of PA growth when co-dosed”) in the assay on PA [4] is reported as “no significant reduction in growth”.

As for `COC(=O)[C@H](Cc1c[nH]c2ccccc12)NCc1cc2ccccc2nc1SC` [Compound 19, Methyl ((2-(Methylthio)quinolin-3-yl)methyl)-L-tryptophanate], the “extent of inhibition … at highest concentration” value at PA ATP synthase was “not complete”. For the same compound, the “inhibition of PA ATP synthase (in words)” value against PA ATP synthase is listed as “dose-dependent inhibition”. Further, the MIC is above 256 mg/L in assay [1] and above 128 mg/L in assay [2]. For the same compound, the “reduction of PA growth when co-dosed” value with PA [4] was “statistically significant reduction”.

As for `COC(=O)[C@H](Cc1c[nH]c2ccccc12)NCc1cc2ccccc2nc1OC` [Compound 18, Methyl ((2-Methoxyquinolin-3-yl)methyl)-L-tryptophanate], on PA ATP synthase, the “extent of inhibition … at highest concentration” value is listed as “complete inhibition” and the “inhibition of PA ATP synthase (in words)” value is reported as “dose-dependent inhibition”. Besides, the MIC in assay [1] was above 256 mg/L. Also, the MIC in assay [2] is above 128 mg/L. In the assay with PA [4], the “reduction of PA growth when co-dosed” value is recorded as “statistically significant reduction; also recorded: largest reduction in PA growth of the set”.

As to `COC(=O)[C@@H](Cc1c[nH]cn1)NCc1cc2ccccc2nc1OC` [Compound 23, Methyl ((2-Methoxyquinolin-3-yl)methyl)-D-histidinate], the MIC in assay [1] and in assay [2] was above 128 mg/L throughout.

As for `COc1nc2ccccc2cc1/C=N/NC(=O)c1ccccc1` [Compound 10, (E)-N′-((2-Methoxyquinolin-3-yl)methylene)benzohydrazide], at PA ATP synthase, the IC50 lay within 6.55 to 55.7 µM and the “inhibition of PA ATP synthase (in words)” value was “dose-dependent inhibition”. In addition, the “H+ gradient formation by the electron transport chain” value in assay [5] was “significant inhibition”. Besides, the MIC in assay [1] is above 128 mg/L. In addition, the MIC in assay [2] is above 128 mg/L.

For `COC(=O)[C@H](Cc1ccc(O)cc1)NCc1cc2ccccc2nc1SC` [Compound 22, Methyl ((2-(Methylthio)quinolin-3-yl)methyl)-L-tyrosinate], at PA ATP synthase, the “extent of inhibition … at highest concentration” value is reported as “complete inhibition” and the “inhibition of PA ATP synthase (in words)” value was “dose-dependent inhibition; also recorded: active; also recorded: strongest activity”. Besides, the MIC in assay [1] was above 256 mg/L. The MIC in assay [2] was above 128 mg/L. Also, the “reduction of PA growth when co-dosed” value in the assay with PA [4] is “statistically significant reduction”.

Turning to “(E)-2-(2-((2-Methoxyquinolin-3-yl)methylene)hydrazineyl)-4-phenylthiazole [Compound 13]”, the “WTPA MIC” value in assay [1] (setting [6]) is above 128 mg/L. For the same compound, the “MSSA MIC” value in assay [2] (setting [6]) is above 128 mg/L.

Consider `CSc1nc2ccccc2cc1C=O` [Compound 6, 2-(Methylthio)quinoline-3-carbaldehyde], for which the MIC in assay [2] stood at 64 mg/L (≈ 315 µM).

With `COC(=O)[C@H](Cc1ccc(O)cc1)NCc1cc2ccccc2nc1OC` [Compound 20, Methyl ((2-Methoxyquinolin-3-yl)methyl)-L-tyrosinate], the MIC in assay [1] and in assay [2] was above 128 mg/L each time.

With `COc1nc2ccccc2cc1/C=N/N=C/c1cc2ccccc2nc1OC` [Compound 11, (1E,2E)-1,2-Bis((2-methoxyquinolin-3-yl)methylene)hydrazine], the MIC is above 128 mg/L in assay [1], above 128 mg/L in assay [2] and 80 mg/L (≈ 216 µM) in the assay on PA [3] (PA).

For `COC(=O)[C@H](Cc1ccc(O)cc1)NCc1cc2ccccc2nc1OCc1ccccc1` [Compound 21, Methyl ((2-(Benzyloxy)quinolin-3-yl)methyl)-L-tyrosinate], at PA ATP synthase, the “inhibition of PA ATP synthase (in words)” value is recorded as “not active”. In addition, the minimal inhibitory concentration (MIC) in assay [1] and in assay [2] was above 128 mg/L each time.

For the compound `COC(=O)[C@H](C)NCc1cc2ccccc2nc1OC` [Compound 14, Methyl ((2-Methoxyquinolin-3-yl)methyl)-L-alaninate], the MIC in assay [1] and in assay [2] was above 128 mg/L throughout.

Regarding `COC(=O)[C@@H](CCSC)NCc1cc2ccccc2nc1OC` [Compound 16, Methyl ((2-Methoxyquinolin-3-yl)methyl)-D-methioninate], the MIC in assay [1] and in assay [2] was above 128 mg/L throughout.

As to `CCOC(=O)C1=C(C)NC(=O)NC1c1cc2ccccc2nc1OC` (stereo not shown) [Compound 9, Ethyl 4-(2-Methoxyquinolin-3-yl)-6-methyl-2-oxo-1,2,3,4-tetrahydropyrimidine-5-carboxylate], the MIC in assay [1] and in assay [2] was above 128 mg/L throughout.

For the compound `COC(=O)[C@@H](CCSC)NCc1cc2ccccc2nc1SC` [Compound 17, Methyl ((2-(Methylthio)quinolin-3-yl)methyl)-D-methioninate], on PA ATP synthase, the “extent of inhibition … at highest concentration” value was “not complete” and the “inhibition of PA ATP synthase (in words)” value is recorded as “dose-dependent inhibition”. The MIC in assay [1] was above 256 mg/L. Moreover, the MIC in assay [2] came out at 64 mg/L (≈ 183 µM). For the same compound, the “reduction of PA growth when co-dosed” value in the assay on PA [4] is “statistically significant reduction”.
